Measurements as given in the supplement of paper PMC7017272.
± gives the standard deviation of the averaged measurements.

Assays:
Settings in all cases: treatment time: 3 days
UT-SCC-81 [1] = assay: drug sensitivity score (DSS); higher = more sensitive; extreme values may be limits of the assay
How it was run: (§1)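 The FIMM pipeline was used to fit percent-inhibition dose–response curves, giving IC50, maximal inhibition and drug sensitivity score. Input data were CellTiter-Glo 2.0 luminescence readings, normalised to vehicle (0.1% DMSO) and cell-killing control wells, from HPV-negative HNSCC cell lines seeded at 500 cells/well in 384-well plates. Cells sat on plastic, on Matrigel or Myogel coatings (500 µg/mL), or within Matrigel or Myogel plus rat collagen I, and received compounds at five 10-fold concentrations for 3 days.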

UT-SCC-42B [2] = assay: as above
How it was run: as §1

UT-SCC-8 = assay: as above
How it was run: as §1

UT-SCC-24B = assay: as above
How it was run: as §1

UT-SCC-44 [3] = assay: as above
How it was run: as §1

UT-SCC-73 [4] = assay: as above
How it was run: as §1

UT-SCC-42A [5] = assay: as above
How it was run: as §1

UT-SCC-40 = assay: as above
How it was run: as §1

UT-SCC-14 [6] = assay: as above
How it was run: as §1

UT-SCC-28 = assay: as above
How it was run: as §1

UT-SCC-106A = assay: as above
How it was run: as §1

UT-SCC-81 [7] = assay: relative IC50 (midpoint of the fitted curve; maximal inhibition may be below 50%); higher = less potent
How it was run: as §1

UT-SCC-42B [8] = assay: as above
How it was run: as §1

UT-SCC-44 [9] = assay: as above
How it was run: as §1

UT-SCC-73 [10] = assay: as above
How it was run: as §1

UT-SCC-42A [11] = assay: as above
How it was run: as §1

UT-SCC-14 [12] = assay: as above
How it was run: as §1

UT-SCC-24A = assay: relative IC50 (midpoint of the fitted curve; maximal inhibition may be below 50%); higher = less potent
Description: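 HNSCC cell lines (500 cells/well, 384-well) were cultured on plastic, on top of (2D) or embedded (3D) in Matrigel or human leiomyoma matrix Myogel (500 ug/mL; Myogel 3D mixed with rat collagen I). Cells were treated for 3 days with 5 ten-fold concentrations of each drug, and viability was read by CellTiter-Glo. Viability was normalised to DMSO (0% inhibition) and 100 uM benzethonium chloride (100% inhibition) controls and fitted with the FIMM DSRT pipeline to give IC50 (nM), maximal % inhibition and the drug sensitivity score (DSS). Suffixes _1/_2/_3 on drug names are replicates.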

[13] = culture condition: embedded in Matrigel
[14] = culture condition: embedded in Myogel + collagen I
[15] = culture condition: on top of Matrigel
[16] = culture condition: on top of Myogel
[17] = culture condition: plastic 2D (no matrix)

Cn1c(=O)c(F)c(Nc2ccc(I)cc2F)c2c(=O)n(C[C@@H](O)CO)cnc21 [TAK-733]
drug sensitivity score (UT-SCC-81 [1]; [13]): 28.8 ± 3.6 DSS
drug sensitivity score (UT-SCC-81 [1]; [14]): 3.93 ± 2.7 DSS
drug sensitivity score (UT-SCC-81 [1]; [15]): 19.6 ± 1.2 DSS
drug sensitivity score (UT-SCC-81 [1]; [16]): 2.63 ± 2.3 DSS
drug sensitivity score (UT-SCC-81 [1]; [17]): 2.9 ± 0.17 DSS
drug sensitivity score (UT-SCC-42B [2]; [13]): 24.1 ± 2.8 DSS
drug sensitivity score (UT-SCC-42B [2]; [15]): 12.4 ± 1.9 DSS
drug sensitivity score (UT-SCC-42B [2]; [16]): 2.6 ± 0.1 DSS
drug sensitivity score (UT-SCC-42B [2]; [17]): 6.27 ± 1.4 DSS
drug sensitivity score (UT-SCC-8; [13]): 13.6 ± 2.6 DSS
drug sensitivity score (UT-SCC-8; [14]): 2.3 ± 2.6 DSS
drug sensitivity score (UT-SCC-8; [15]): 8.03 ± 4.5 DSS
drug sensitivity score (UT-SCC-8; [16]): 7.53 ± 4.9 DSS
drug sensitivity score (UT-SCC-8; [17]): 7.07 ± 2.1 DSS
drug sensitivity score (UT-SCC-24B; [13]): 9.43 ± 5.1 DSS
drug sensitivity score (UT-SCC-24B; [14]): 8.77 ± 1.4 DSS
drug sensitivity score (UT-SCC-24B; [15]): 10 ± 1.8 DSS
drug sensitivity score (UT-SCC-24B; [16]): 5.97 ± 2.3 DSS
drug sensitivity score (UT-SCC-24B; [17]): 13 ± 6 DSS
drug sensitivity score (UT-SCC-44 [3]; [13]): 21.6 ± 1.5 DSS
drug sensitivity score (UT-SCC-44 [3]; [14]): 3.67 ± 1.4 DSS
drug sensitivity score (UT-SCC-44 [3]; [15]): 14.8 ± 1.2 DSS
drug sensitivity score (UT-SCC-44 [3]; [16]): 5.27 ± 2.8 DSS
drug sensitivity score (UT-SCC-44 [3]; [17]): 12.9 ± 0.4 DSS
drug sensitivity score (UT-SCC-73 [4]; [13]): 24.7 ± 0.5 DSS
drug sensitivity score (UT-SCC-73 [4]; [14]): 13.8 ± 6 DSS
drug sensitivity score (UT-SCC-73 [4]; [15]): 21.4 ± 1.6 DSS
drug sensitivity score (UT-SCC-73 [4]; [16]): 12.9 ± 0.38 DSS
drug sensitivity score (UT-SCC-73 [4]; [17]): 17.5 ± 1.3 DSS
drug sensitivity score (UT-SCC-42A [5]; [13]): 16.7 ± 2 DSS
drug sensitivity score (UT-SCC-42A [5]; [14]): 8.73 ± 7.5 DSS
drug sensitivity score (UT-SCC-42A [5]; [15]): 16 ± 1.3 DSS
drug sensitivity score (UT-SCC-42A [5]; [16]): 9.63 ± 2.4 DSS
drug sensitivity score (UT-SCC-42A [5]; [17]): 11.4 ± 1.6 DSS
drug sensitivity score (UT-SCC-40; [13]): 24 ± 0.56 DSS
drug sensitivity score (UT-SCC-40; [14]): 16.2 ± 2.5 DSS
drug sensitivity score (UT-SCC-40; [15]): 20.2 ± 1.5 DSS
drug sensitivity score (UT-SCC-40; [16]): 10 ± 0.56 DSS
drug sensitivity score (UT-SCC-40; [17]): 11.6 ± 1.3 DSS
drug sensitivity score (UT-SCC-14 [6]; [13]): 11.2 ± 3.2 DSS
drug sensitivity score (UT-SCC-14 [6]; [14]): 7.5 ± 1.5 DSS
drug sensitivity score (UT-SCC-14 [6]; [15]): 7.13 ± 0.64 DSS
drug sensitivity score (UT-SCC-14 [6]; [16]): 5 ± 0.98 DSS
drug sensitivity score (UT-SCC-14 [6]; [17]): 2.67 ± 3 DSS
drug sensitivity score (UT-SCC-28; [13]): 9.3 ± 2.7 DSS
drug sensitivity score (UT-SCC-28; [14]): 0.8 ± 1.4 DSS
drug sensitivity score (UT-SCC-28; [15]): 10.8 ± 2.5 DSS
drug sensitivity score (UT-SCC-28; [17]): 5 ± 1.4 DSS
drug sensitivity score (UT-SCC-106A; [13]): 16.8 ± 1.1 DSS
drug sensitivity score (UT-SCC-106A; [14]): 1.2 ± 0.56 DSS
drug sensitivity score (UT-SCC-106A; [15]): 18.7 ± 0.38 DSS
drug sensitivity score (UT-SCC-106A; [16]): 1.07 ± 1.1 DSS
drug sensitivity score (UT-SCC-106A; [17]): 19 ± 1.2 DSS
relative IC50 (UT-SCC-81 [7]; [15]): 5.89 nM
relative IC50 (UT-SCC-81 [7]; [17]): 151 nM
relative IC50 (UT-SCC-42B [8]; [13]): 1.54 nM
relative IC50 (UT-SCC-42B [8]; [16]): 80.8 nM
relative IC50 (UT-SCC-44 [9]; [13]): 3.37 nM
relative IC50 (UT-SCC-44 [9]; [14]): 108 nM
relative IC50 (UT-SCC-44 [9]; [17]): 7.56 nM
relative IC50 (UT-SCC-73 [10]; [13]): 2.4 nM
relative IC50 (UT-SCC-73 [10]; [14]): 3.82 nM
relative IC50 (UT-SCC-73 [10]; [15]): 3.23 nM
relative IC50 (UT-SCC-73 [10]; [16]): 9.54 nM
relative IC50 (UT-SCC-73 [10]; [17]): 5.35 nM
relative IC50 (UT-SCC-42A [11]; [13]): 4.26 nM
relative IC50 (UT-SCC-42A [11]; [14]): 11.3 nM
relative IC50 (UT-SCC-42A [11]; [15]): 4.67 nM
relative IC50 (UT-SCC-42A [11]; [17]): 9.23 nM
relative IC50 (UT-SCC-14 [12]; [14]): 9.53 nM
relative IC50 (UT-SCC-14 [12]; [15]): 14.3 nM
relative IC50 (UT-SCC-14 [12]; [16]): 16.1 nM
relative IC50 (UT-SCC-24A; [15]): 1.23 nM
relative IC50 (UT-SCC-24A; [17]): 1.21 nM
